The values below come from PubChem BioAssay (NCI).

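Values below derive from 48-hour exposures of cells grown in 96-well plates, with endpoints linearly interpolated between the two concentrations bracketing the appropriate inhibition level. At the GI50, growth is halved. The concentration for full growth arrest is given as TGI.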

Some test systems named below: UACC-257 melanoma; HOP-92 NSCLC; SK-OV-3 ovarian; RXF 393 renal; SN12C renal; T-47D breast; A549 NSCLC; SR leukemia; SNB-19 CNS; NCI-H226 lung.
Test in all cases: NCI tumour cell line growth inhibition, 48 h

For the compound `CN1c2ccc(Cl)cc2C(=O)NC1c1ccc([N+](=O)[O-])s1` (stereo unspecified), the TGI came to 29.1 µM in the assay on UACC-257 melanoma; 33.1 µM in the assay with HOP-92 NSCLC; 67.2 µM with SK-OV-3 ovarian; 24.6 µM with RXF 393 renal; 30.9 µM with SN12C renal; 55 µM with T-47D breast. Further, the results for the TGI with A549 NSCLC, in the assay with SR leukemia and in the assay on SNB-19 CNS were 92 µM, 35.1 µM and more than 100 µM, respectively.

With `O=C(N/N=C/c1ccc(Cl)cc1)c1ccc(C(F)(F)F)nc1Nc1cccc(C(F)(F)F)c1`, the GI50 was 2.43 µM with UACC-257 melanoma; 2.21 µM in the assay with NCI-H226 lung; 0.347 µM in the assay on HOP-92 NSCLC; 1.85 µM with SK-OV-3 ovarian; 1.78 µM in the assay with SN12C renal; 2.06 µM in the assay on T-47D breast. Moreover, the values for the GI50 in the assay with A549 NSCLC, in the assay with SR leukemia and with SNB-19 CNS were 2.89 µM, 0.879 µM and 2.61 µM, respectively. Further, the TGI is 8.99 µM with UACC-257 melanoma; 6.82 µM with NCI-H226 lung; 2.71 µM in the assay on HOP-92 NSCLC; 7.54 µM in the assay with SK-OV-3 ovarian; 10.6 µM in the assay with SN12C renal; 10.7 µM with T-47D breast. Further, the results for the TGI in the assay with A549 NSCLC, in the assay with SR leukemia and in the assay on SNB-19 CNS were 9.61 µM, 5.71 µM and 13 µM, respectively.

On to `CS/C(N)=N\NC(=O)CCC(=O)Nc1ccccc1C(F)(F)F`, for which the TGI with UACC-257 melanoma, in the assay on NCI-H226 lung, in the assay with HOP-92 NSCLC, with SK-OV-3 ovarian, with RXF 393 renal and with SN12C renal was more than 100 µM throughout. Also, the TGI in the assay on A549 NSCLC, in the assay with SR leukemia and in the assay with SNB-19 CNS was more than 100 µM in each case.

`COc1cc(C(C)O)c[n+](CCc2c[nH]c3ccccc23)c1` (stereo unspecified): the TGI with UACC-257 melanoma, in the assay with RXF 393 renal, in the assay on SN12C renal, in the assay with A549 NSCLC, with SR leukemia and in the assay with SNB-19 CNS was more than 100 µM each time.

`Cc1ccc(C(=O)CN(/C=C/C(=O)C(F)(F)F)c2ccc(S(N)(=O)=O)cc2)cc1`: the GI50 with UACC-257 melanoma was more than 100 µM; with NCI-H226 lung, more than 100 µM; in the assay with HOP-92 NSCLC, 99.7 µM; with SK-OV-3 ovarian, more than 100 µM; with RXF 393 renal, more than 100 µM; in the assay on SN12C renal it was more than 100 µM. The GI50 in the assay with T-47D breast was 70.1 µM; with A549 NSCLC, 63.5 µM. For the same compound, the TGI with UACC-257 melanoma, with NCI-H226 lung, with HOP-92 NSCLC, with SK-OV-3 ovarian, in the assay with RXF 393 renal and with SN12C renal was more than 100 µM in each case. The TGI in the assay with T-47D breast and with A549 NSCLC was more than 100 µM in each case.

As for `COc1cc(C=C2C(=O)NC(=O)NC2=O)cc(OC)c1OC`, the TGI in the assay on UACC-257 melanoma, with NCI-H226 lung, with HOP-92 NSCLC, with SK-OV-3 ovarian, in the assay on RXF 393 renal and in the assay with SN12C renal was more than 100 µM in each case. The TGI in the assay with A549 NSCLC, with SR leukemia and in the assay on SNB-19 CNS was more than 100 µM each time.

`CC1CC[C@]2(C(=O)O)CCC3(C)C(=CC(=O)C4[C@@]5(C)CCC(=O)C(C)(C)C5CC[C@]43C)[C@@H]2[C@H]1C` (stereo partly specified): the TGI with UACC-257 melanoma was 96.9 µM; in the assay on NCI-H226 lung, 92.6 µM; with HOP-92 NSCLC, 73.2 µM; with SK-OV-3 ovarian, more than 100 µM; in the assay on RXF 393 renal, 49.4 µM; with SN12C renal, more than 100 µM. The TGI is more than 100 µM with A549 NSCLC, 37.5 µM with SR leukemia and more than 100 µM in the assay on SNB-19 CNS.

`COC1(OC)C2(Cl)C(Cl)=C(Cl)C1(Cl)C1C=CC=CC12` (stereo unspecified): the TGI in the assay with UACC-257 melanoma, in the assay with NCI-H226 lung, in the assay on HOP-92 NSCLC, in the assay with SK-OV-3 ovarian, in the assay on RXF 393 renal and in the assay on SN12C renal was more than 100 µM in each case. The TGI in the assay on A549 NSCLC, with SR leukemia and in the assay with SNB-19 CNS was more than 100 µM in each case.

Regarding `COc1ccc(/C=C/c2ccnc3ccccc23)c(OC)c1`, the TGI with UACC-257 melanoma, with NCI-H226 lung, in the assay with SK-OV-3 ovarian, in the assay with RXF 393 renal, with SN12C renal and in the assay with T-47D breast was more than 10 µM throughout. Besides, the TGI with A549 NSCLC and in the assay on SNB-19 CNS was more than 10 µM throughout.

As to `Cc1ccn2c(c1)nc1nc3ccccc3nc12`, the TGI with UACC-257 melanoma, in the assay on NCI-H226 lung, in the assay with HOP-92 NSCLC, with SK-OV-3 ovarian, with RXF 393 renal and in the assay with A549 NSCLC was more than 100 µM in each case. The TGI in the assay with SR leukemia and in the assay on SNB-19 CNS was more than 100 µM in each case.

On to `CCC[CH2][Sn]1([CH2]CCC)[O]CC(CN2CCCC2)[O]1` (stereo unspecified), for which the GI50 in the assay with UACC-257 melanoma is 14.3 µM; with NCI-H226 lung, 21.9 µM; with HOP-92 NSCLC it was 8.45 µM; with SK-OV-3 ovarian, 37 µM; in the assay on RXF 393 renal, 22.4 µM; with SN12C renal it was 16.7 µM. The results for the GI50 with A549 NSCLC, with SR leukemia and in the assay with SNB-19 CNS were 47.2 µM, 10.4 µM and 18.7 µM, respectively. The TGI with UACC-257 melanoma is 29.7 µM; with NCI-H226 lung, 64.1 µM; in the assay with HOP-92 NSCLC, 23.8 µM; in the assay on SK-OV-3 ovarian, more than 100 µM; in the assay with RXF 393 renal, 37.8 µM; in the assay on SN12C renal it was 31 µM. The TGI with A549 NSCLC is more than 100 µM; in the assay with SR leukemia it was 39.5 µM; in the assay on SNB-19 CNS, 44.3 µM.

In the case of `COc1cc2c(cc1OC)C(CC(=O)NN=C(C)C)NCC2` (stereo unspecified), the TGI in the assay on UACC-257 melanoma, with NCI-H226 lung, in the assay on HOP-92 NSCLC, with SK-OV-3 ovarian, in the assay on RXF 393 renal and in the assay on SN12C renal was more than 100 µM throughout. Also, the TGI with A549 NSCLC, in the assay on SR leukemia and with SNB-19 CNS was more than 100 µM throughout.

On to `CN1C(=O)c2cccc3cc([N+](=O)[O-])cc(c23)C1=O`, for which the TGI in the assay with UACC-257 melanoma, in the assay with HOP-92 NSCLC, in the assay on SK-OV-3 ovarian, with SN12C renal, in the assay on T-47D breast and with A549 NSCLC was more than 10 µM in each case. Further, the TGI in the assay on SR leukemia and with SNB-19 CNS was more than 10 µM in each case.
